Columns and labels:
S. epidermidis (MRSE) = assay: MIC against hospital strains; conditions: Staphylococcus epidermidis
Reo-1 = assay: microbe, parasite or virus in culture; type: cell-based, reovirus type-1; conditions: Reovirus sp., BHK, read-out: Reo-1 EC50
BVDV = assay: microbe, parasite or virus in culture; type: cell-based, bovine viral diarrhoea virus; conditions: Bovine viral diarrhea virus isolates and strains, MDBK, in Bos taurus, read-out: BVDV EC50
[1] = system: S. epidermidis ATCC 12228; assay: disc diffusion method; type: cell-based, Staphylococcus epidermidis; conditions: Staphylococcus epidermidis, ATCC12228, applied 400 µg per disc, dash = lack of the growth inhibition area, read-out: diameter of growth inhibitory zone (GIZ)
VV = assay: microbe, parasite or virus in culture; type: cell-based; conditions: Orthopoxvirus vaccinia, Vero 76, read-out: VV EC50
[2] = system: methicillin-resistant strains of S. aureus (MRSA); assay: MIC against hospital strains; conditions: Staphylococcus aureus
CV-B5 = assay: microbe, parasite or virus in culture; type: cell-based, coxsackievirus B5; conditions: Enterovirus B, CVB5, Vero 76, read-out: CV-B5 EC50
in vitro [3] = conditions: Syrian hamster (Mesocricetus auratus)
S. aureus ATCC 25923 [4] = assay: disc diffusion method; type: cell-based, Staphylococcus aureus; conditions: Staphylococcus aureus, ATCC25923, applied 400 µg per disc, dash = lack of the growth inhibition area, read-out: diameter of growth inhibitory zone (GIZ)
in vitro [5] = conditions: human
S. aureus ATCC 25923 [6] = assay: MIC, twofold serial agar dilution; type: cell-based; conditions: Staphylococcus aureus, ATCC25923, 18 h, 35 °C, read-out: minimal inhibitory concentrations (MIC)
S. aureus NCTC 4163 [7] = assay: disc diffusion method; type: cell-based, Staphylococcus aureus; conditions: Staphylococcus aureus, NCTC4163, applied 400 µg per disc, dash = lack of the growth inhibition area, read-out: diameter of growth inhibitory zone (GIZ)
B. subtilis ATCC 6633 [8] = assay: MIC, twofold serial agar dilution; type: cell-based; conditions: Bacillus subtilis, ATCC6633, 18 h, 35 °C, read-out: minimal inhibitory concentrations (MIC)
S. aureus ATCC 29213 [9] = assay: MIC, twofold serial agar dilution; type: cell-based; conditions: Staphylococcus aureus, ATCC29213, 18 h, 35 °C, read-out: minimal inhibitory concentrations (MIC)
S. aureus ATCC 6538 = assay: MIC, twofold serial agar dilution; type: cell-based; conditions: Staphylococcus aureus, ATCC6538, 18 h, 35 °C, read-out: minimal inhibitory concentrations (MIC)
in vitro [10] = conditions: African green monkey (Cercopithecus aethiops)
B. cereus ATCC 11778 [11] = assay: disc diffusion method; type: cell-based, Bacillus cereus; conditions: Bacillus cereus, ATCC11778, applied 400 µg per disc, dash = lack of the growth inhibition area, read-out: diameter of growth inhibitory zone (GIZ)
HIV-1 = assay: microbe, parasite or virus in culture; conditions: Human immunodeficiency virus 1, MT4, read-out: HIV-1 EC50
in vitro [12] = conditions: cattle (Bos taurus)
S. aureus NCTC 4163 [13] = assay: MIC, twofold serial agar dilution; type: cell-based; conditions: Staphylococcus aureus, NCTC4163, 18 h, 35 °C, read-out: minimal inhibitory concentrations (MIC)
[14] = system: hospital methicillin-susceptible strains of S. aureus (MSSA); assay: MIC against hospital strains; conditions: Staphylococcus aureus
B. cereus ATCC 11778 [15] = assay: MIC, twofold serial agar dilution; type: cell-based; conditions: Bacillus cereus, ATCC11778, 18 h, 35 °C, read-out: minimal inhibitory concentrations (MIC)
[16] = system: S. epidermidis ATCC 12228; assay: MIC, twofold serial agar dilution; type: cell-based; conditions: Staphylococcus epidermidis, ATCC12228, 18 h, 35 °C, read-out: minimal inhibitory concentrations (MIC)
S. aureus ATCC 29213 [17] = assay: disc diffusion method; type: cell-based, Staphylococcus aureus; conditions: Staphylococcus aureus, ATCC29213, applied 400 µg per disc, dash = lack of the growth inhibition area, read-out: diameter of growth inhibitory zone (GIZ)
VSV = assay: microbe, parasite or virus in culture; type: cell-based; conditions: Vesicular stomatitis virus, Vero 76, read-out: VSV EC50
M. luteus ATCC 9341 = assay: disc diffusion method; type: cell-based, Micrococcus luteus; conditions: Micrococcus luteus, ATCC9341, applied 400 µg per disc, dash = lack of the growth inhibition area, read-out: diameter of growth inhibitory zone (GIZ)
B. subtilis ATCC 6633 [18] = assay: disc diffusion method; type: cell-based, Bacillus subtilis; conditions: Bacillus subtilis, ATCC6633, applied 400 µg per disc, dash = lack of the growth inhibition area, read-out: diameter of growth inhibitory zone (GIZ)
[19] = hospital S. epidermidis MRSE strain 430/11
[20] = hospital S. epidermidis MRSE strain 431/11
[21] = hospital S. epidermidis MRSE strain 432/11
[22] = hospital S. epidermidis MRSE strain 433/11
[23] = hospital S. epidermidis MRSE strain 434/11
[24] = hospital S. epidermidis MRSE strain 435/11
[25] = hospital S. epidermidis MRSE strain 436/11
[26] = hospital S. epidermidis MRSE strain 437/11
[27] = hospital S. epidermidis MRSE strain 438/11
[28] = hospital S. epidermidis MRSE strain 439/11
[29] = hospital S. aureus MRSA strain 389/10
[30] = hospital S. aureus MRSA strain 390/10
[31] = hospital S. aureus MRSA strain 391/10
[32] = hospital S. aureus MRSA strain 392/10
[33] = hospital S. aureus MRSA strain 393/10
[34] = hospital S. aureus MRSA strain 394/10
[35] = hospital S. aureus MRSA strain 399/10
[36] = hospital S. aureus MRSA strain 450/11
[37] = hospital S. aureus MRSA strain 451/11
[38] = hospital S. aureus MRSA strain 452/11
[39] = hospital S. aureus MSSA strain 440/11
[40] = hospital S. aureus MSSA strain 441/11
[41] = hospital S. aureus MSSA strain 442/11
[42] = hospital S. aureus MSSA strain 443/11
[43] = hospital S. aureus MSSA strain 444/11
[44] = hospital S. aureus MSSA strain 445/11
[45] = hospital S. aureus MSSA strain 446/11
[46] = hospital S. aureus MSSA strain 447/11
[47] = hospital S. aureus MSSA strain 448/11
[48] = hospital S. aureus MSSA strain 449/11

S=C(NCCc1c[nH]c2ccccc12)Nc1cccc(Cl)c1 [Compound 14, 1-(2-(1H-Indol-3-yl)ethyl)-3-(3-chlorophenyl)thiourea]
15 mm: zone of inhibition at 400 µg/disc (B. cereus ATCC 11778 [11]) | zone of inhibition at 400 µg/disc (S. aureus ATCC 29213 [17])
12.5 µg/mL: MIC [14, 43]
12 mm: zone of inhibition at 400 µg/disc [1] | zone of inhibition at 400 µg/disc (M. luteus ATCC 9341) | zone of inhibition at 400 µg/disc (B. subtilis ATCC 6633 [18])
9 ± 1.2 µM: EC50 (CV-B5)
> 42 µM: EC50 (HIV-1)
> 6 µM: EC50 (Reo-1)
50 µg/mL: MIC (S. epidermidis (MRSE); [25]) | MIC (S. epidermidis (MRSE); [27]) | MIC (S. aureus ATCC 25923 [6]) | MIC (B. subtilis ATCC 6633 [8]) | MIC (S. aureus ATCC 29213 [9]) | MIC (S. aureus ATCC 6538) | MIC (S. aureus NCTC 4163 [13]) | MIC [16]
42 µM: CC50 (in vitro [5])
32 µM: CC50 (in vitro [10]) | CC50 (in vitro [12])
6.25 µg/mL: MIC (S. epidermidis (MRSE); [20])
> 32 µM: EC50 (BVDV) | EC50 (VV) | EC50 (VSV)
169 to 171 °C: melting point
13 mm: zone of inhibition at 400 µg/disc (S. aureus NCTC 4163 [7])
14 mm: zone of inhibition at 400 µg/disc (S. aureus ATCC 25923 [4])
6 µM: CC50 (in vitro [3])
25 µg/mL: MIC (S. epidermidis (MRSE); [19]) | MIC (S. epidermidis (MRSE); [21]) | MIC (S. epidermidis (MRSE); [22]) | MIC (S. epidermidis (MRSE); [23]) | MIC (S. epidermidis (MRSE); [24]) | MIC (S. epidermidis (MRSE); [26]) | MIC (S. epidermidis (MRSE); [28]) | MIC [2, 29] | MIC [2, 30] | MIC [2, 31] | MIC [2, 32] | MIC [2, 33] | MIC [2, 34] | MIC [2, 35] | MIC [2, 36] | MIC [2, 37] | MIC [2, 38] | MIC [14, 39] | MIC [14, 40] | MIC [14, 41] | MIC [14, 42] | MIC [14, 44] | MIC [14, 45] | MIC [14, 46] | MIC [14, 47] | MIC [14, 48] | MIC (B. cereus ATCC 11778 [15])

S=C(NCCc1c[nH]c2ccccc12)Nc1ccc(Cl)c(Cl)c1 [Compound 6, 1-(2-(1H-indol-3-yl)ethyl)-3-(3,4-dichlorophenyl)thiourea]
16 mm: zone of inhibition at 400 µg/disc [1]
45 µM: CC50 (in vitro [5])
> 13 µM: EC50 (VV) | EC50 (CV-B5) | EC50 (VSV)
> 45 µM: EC50 (HIV-1)
13 µM: CC50 (in vitro [10])
168 to 169 °C: melting point
10 mm: zone of inhibition at 400 µg/disc (S. aureus NCTC 4163 [7])
10 µM: CC50 (in vitro [3])
> 27 µM: EC50 (BVDV)
15 mm: zone of inhibition at 400 µg/disc (S. aureus ATCC 25923 [4]) | zone of inhibition at 400 µg/disc (B. cereus ATCC 11778 [11]) | zone of inhibition at 400 µg/disc (S. aureus ATCC 29213 [17]) | zone of inhibition at 400 µg/disc (M. luteus ATCC 9341) | zone of inhibition at 400 µg/disc (B. subtilis ATCC 6633 [18])
> 10 µM: EC50 (Reo-1)
27 µM: CC50 (in vitro [12])
6.25 µg/mL: MIC (S. epidermidis (MRSE); [19]) | MIC (S. epidermidis (MRSE); [20]) | MIC (S. epidermidis (MRSE); [21]) | MIC (S. epidermidis (MRSE); [22]) | MIC (S. epidermidis (MRSE); [24]) | MIC (S. epidermidis (MRSE); [25]) | MIC (S. epidermidis (MRSE); [26]) | MIC (S. epidermidis (MRSE); [27]) | MIC (S. epidermidis (MRSE); [28]) | MIC [2, 29] | MIC [2, 30] | MIC [2, 31] | MIC [2, 32] | MIC [2, 33] | MIC [2, 34] | MIC [2, 35] | MIC [2, 36] | MIC [2, 37] | MIC [2, 38] | MIC (S. aureus ATCC 25923 [6]) | MIC (S. aureus ATCC 29213 [9]) | MIC (S. aureus NCTC 4163 [13]) | MIC [14, 39] | MIC [14, 40] | MIC [14, 41] | MIC [14, 42] | MIC [14, 43] | MIC [14, 44] | MIC [14, 45] | MIC [14, 46] | MIC [14, 47] | MIC [14, 48] | MIC (B. cereus ATCC 11778 [15])
12.5 µg/mL: MIC (S. epidermidis (MRSE); [23]) | MIC (B. subtilis ATCC 6633 [8]) | MIC (S. aureus ATCC 6538) | MIC [16]

— publication PMC6222422, “Synthesis and Biological Evaluation of Novel Indole-Derived Thioureas” (Molecules : A Journal of Synthetic Chemistry and Natural …, 2018)
